Source: patent US8835392B2, “Mimetic peptides and the use thereof in the form of 20S, 26S and immunoproteasome inhibitors” (Technische Universität, priority 2005, dated 2014)
Where a SMILES comes first, the peptide text is derived from it. The star is where a group is joined. Cbz = O=C(OCc1ccccc1)*; OtBu = CC(C)(C)O*

Experiments:
[1] = system: Human melanoma cells (MeWo); assay: Viability of human melanoma cells (MeWo), crystal violet-staining; format: cell-based; settings: 72 h
Description: A, Human melanoma cells (MeWo) were treated with increasing concentrations of the compounds 15 or 3 (MG132) for 72 hours. The viability of the cells after the treatment with compound 15 (-♦-) and with MG132 (-□-) was detected by a crystal-violet-staining. B and C, MeWo cells were co-cultivated with the compounds 15 and 3 (MG132) for 24 hours. The cells were subsequently fixed in 70% ethanol, and treated with RNAse A. The DNA was stained with propidium iodide (5 μg/ml), and analysed by means of FACS (FACS Calibur flow cytometer; Beckton Dickinson). The statistical significance was detected by the chi-square-test. The relative distribution of the cells that were present in the G1-(black), in the S-(white) or in the G2 phase (hatched) of the cellular cycle is shown for both compounds as examined (15 in B and MG132 in C).
Human melanoma cells (MeWo) were incubated for 72 h with different concentrations of the inhibitor 15 and 28, and the viability of the cells was determined by means of crystal violet-staining (FIG. 8).

[2] = biological target: T1, 20S proteasome β1 caspase-like activity (LLE-MCA) (Homo sapiens, UniProt P28072+Q99436); assay: Protease assay, caspase-like activity of isolated 20S proteasomes; format: biochemical; settings: isolated 20S proteasome; LLE-MCA 50 μM; 15 min pre-incubation; read-out: IC50 β1 Caspase-like (E)
T1 construct: Proteasomes were isolated from red blood cells; from tissue; host or cells: red blood cells
Description: (§1) Proteasomes were isolated from red blood cells. Cells were lysed with DTT (1 mM), and the stroma-free supernatant was loaded on DEAE-sepharose (Toyopearls). Proteasome was eluted with an NaCl-gradient in TEAD (20 mM TrisCl pH 7.4, 1 mM EDTA, 1 mM azide, 1 mM DTT) of 100 to 300 mM NaCl. Proteasome was concentrated using ammonium sulfate-precipitation (between 40 and 70% saturation) and was separated in a 10-40% sucrose-gradient through centrifugation at 40.000 rpm for 16 hours (SW40; L7, Beckman & Coulter). Finally, the proteasomes were purified on a MonoQ-column and eluted with an NaCl-gradient at about 280 mM NaCl. The fractions containing purified proteasome were dialysed against 50 mM NaCl in TEAD and stored on ice. The purity was determined using SDS-PAGE.
(§2) Suc-LLVY-AMC, Z-VGR-AMC and LLE-AMC (BACHEM, Calbiochem) was used, in order to determine the chymotrypsin-like, trypsin-like or caspase-like (post-acidic)-activities of the proteasome. Substrate was incubated with proteasome at 37° C. in assay-buffer (20 mM Tris/Cl, pH 7.2, 1 mM EDTA, 1 mM DTT) for one hour. 100 ng proteasome was pre-incubated with 0.01-10 μM of the inhibitor for […]. The reaction was started by the addition of substrate (50 μM). The AMC as released was detected using fluorescence emission at 460 nm (excitation at 390 nm) using a TECAN-fluorimeter. The activity was calculated in fluorescence-units. The inhibition is depicted by IC50-values.
(§3) The effects thereof were compared with the one of the commonly used proteasomal inhibitor 3 (MG132). The chymotrypsin-like (Suc-LLVY-AMC), the trypsin-like (Bz-VGR-AMC), and the caspase-like (Z-LLE-AMC)-activities of 20S proteasomes were determined following incubation for one hour at 37° C.
(§4) The IC50-values form the inhibition of the proteasome were calculated at increasing concentrations of the inhibitor. The samples were pre-incubated for 15 min in ice. The assay was started through the addition of 50 μM of one of the following fluorogenic peptide substrates:
(§5) The release of MCA was determined at 460 nm emission (excitation 390 nm). The IC50-values as calculated for MG132 served as controls.

[3] = biological target: T2, 20S proteasome β5 chymotrypsin-like activity (Suc-LLVY-AMC) (Homo sapiens, UniProt P20618+P28074); assay: Protease assay, chymotrypsin-like activity of isolated 20S proteasomes (LLVY substrate); format: biochemical; settings: isolated 20S proteasome; LLVY-MCA 50 μM; 15 min pre-incubation; read-out: IC50 β5 Chymotrypsin-like (Y)
T2 construct: Proteasomes were isolated from red blood cells; from tissue; host or cells: red blood cells
Description: as §1, §2
The chymotrypsin-like (Suc-LLVY-AMC), the trypsin-like (Bz-VGR-AMC), and the caspase-like (Z-LLE-AMC)-activities of 20S proteasomes were determined following incubation for one hour at 37° C.
as §4, §5

[4] = biological target: T3, 20S proteasome β2 trypsin-like activity (VGR-MCA) (Homo sapiens, UniProt P49720+Q99436); assay: Protease assay, trypsin-like activity of isolated 20S proteasomes; format: biochemical; settings: isolated 20S proteasome; VGR-MCA 50 μM; 15 min pre-incubation; read-out: IC50 β2 Trypsin-like (R)
T3 construct: Proteasomes were isolated from red blood cells; from tissue; host or cells: red blood cells
Description: as §1, §2, §3, §4, §5

[5] = biological target: T4, 20S proteasome β5 chymotrypsin-like activity (GLL-MCA) (Homo sapiens, UniProt P20618+P28074); assay: Protease assay, chymotrypsin-like activity of isolated 20S proteasomes (GLL substrate); format: biochemical; settings: isolated 20S proteasome; GLL-MCA 50 μM; 15 min pre-incubation; read-out: IC50 β5 Chym.-like (L)
T4 construct: Proteasomes were isolated from red blood cells; from tissue; host or cells: red blood cells
Description: as §1, §2, §4, §5

[6] = system: Fibroblasts; assay: Viability of fibroblasts (control); format: cell-based; settings: Fibroblast, identical conditions (72 h), read-out: concentration for 50% reduction of the viability

SMILES	sensitivity of tumour cells [1]	IC50 [2]	IC50 [3]	IC50 ([1]; Homo sapiens, read-out: concentration at rate of survival of 50% of the cells)	IC50 [4]	IC50 [5]	IC50 [6]
CC(C)C[C@H](NC(=O)OCc1ccccc1)C(=O)N[C@@H](CC(C)C)C(=O)N[C@@H](CC(C)C)C(=O)C(=O)Nc1ccccc1 [Compound 28]	increased sensitivity of tumour cells	> 10000 nM	72 nM	–	–	–	–
CC(C)CC(C=O)NC(=O)C(CC(=O)OC(C)(C)C)NC(=O)C(CC(C)C)NC(=O)OCc1ccccc1 (stereo not drawn) [Compound 15, Z-Leu-Asp(O^tBu)Leu-CHO] (Cbz-Leu-Asp(OtBu)-Leu-aldehyde; configuration not given here)	increased sensitivity of tumour cells	1790 nM	58 nM	15 nM	155 nM	31 nM	500 to 1000 nM
